Ends that are not written are not given here.
B1: K5: plasminogen fragment within Val442-Asn790, kringle 5 and the latent protease domain (protein)
chain: VVAPPPVVLLPDVETPSEEDCMFGNGKGYRGKRATTVTGTPCQDWAAQEPHRHSIFTPETNPRAGLEKNYCRNPDGDVGGPWCYTTNPRKLYDYCDVPQCAAPSFDCGKPQVEPKKCPGRVVGGCVAHPHSWPWQVSLRTRFGMHFCGGTLISPEWVLTAAHCLEKSPRPSSYKVILGAHQEVNLEPHVQEIEVSRLFLEPTRKDIALLKLSSPAVITDKVIPACLPSPNYVVADRTECFITGWGETQGTFGAGLLKEAQLPVIENKVCNRYEFLNGRVQSTELCAGHLAGGTDSCQGDSGGPLVCFEKDKYILQGVTSWGLGCARPNKPGVYVRVSRFVTWIEGVMRN
B2: K1-3: plasminogen fragment Tyr79-Val337 or Tyr79-Val353, obtained by elastase digestion (protein)
chain: YLSECKTGNGKNYRGTMSKTKNGITCQKWSSTSPHRPRFSPATHPSEGLEENYCRNPDNDPQGPWCYTTDPEKRYDYCDILECEEECMHCSGENYDGKISKTMSGLECQAWDSQSPHAHGYIPSKFPNKNLKKNYCRNPDRELRPWCFTTDPNKRWELCDIPRCTTPPPSSGPTYQCLKGTGENYRGNVAVTVSGHTCQHWSAQTPHTHNRTPENFPCKNLDENYCRNPDGKRAPWCHTTNSQVRWEYCKIPSCDSSPV

What was measured:
Plasminogen = molecular target: T1, Plasminogen (Homo sapiens, UniProt P00747); assay: Plasminogen binding to BSA-coupled C-terminal Plg-RKT peptide coated on microtiter wells, detected with anti-plasminogen MAb
T1 construct: host or cells: peptide is synthetic
T1 sequence (P00747 20-810 limits assumed): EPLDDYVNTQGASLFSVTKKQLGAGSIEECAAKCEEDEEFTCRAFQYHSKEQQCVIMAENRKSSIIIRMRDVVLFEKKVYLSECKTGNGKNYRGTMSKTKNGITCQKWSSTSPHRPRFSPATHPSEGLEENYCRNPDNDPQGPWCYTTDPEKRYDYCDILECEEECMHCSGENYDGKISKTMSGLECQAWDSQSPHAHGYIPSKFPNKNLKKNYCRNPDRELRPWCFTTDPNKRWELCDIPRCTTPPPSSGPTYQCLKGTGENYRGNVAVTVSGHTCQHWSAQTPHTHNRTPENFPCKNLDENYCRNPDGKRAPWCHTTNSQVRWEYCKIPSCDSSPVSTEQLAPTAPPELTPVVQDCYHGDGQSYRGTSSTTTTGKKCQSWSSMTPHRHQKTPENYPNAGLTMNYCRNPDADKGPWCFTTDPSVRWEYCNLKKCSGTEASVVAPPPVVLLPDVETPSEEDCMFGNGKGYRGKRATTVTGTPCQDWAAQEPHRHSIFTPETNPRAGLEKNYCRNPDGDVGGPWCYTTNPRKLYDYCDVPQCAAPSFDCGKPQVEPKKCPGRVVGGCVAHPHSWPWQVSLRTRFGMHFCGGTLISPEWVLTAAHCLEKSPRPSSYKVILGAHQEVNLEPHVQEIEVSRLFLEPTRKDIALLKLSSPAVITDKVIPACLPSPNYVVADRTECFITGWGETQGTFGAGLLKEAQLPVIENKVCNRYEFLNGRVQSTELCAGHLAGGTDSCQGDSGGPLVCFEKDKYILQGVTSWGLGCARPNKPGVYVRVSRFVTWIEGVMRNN
From the text: Our isolation method was consistent with exposure of the carboxyl-terminus of Plg-RKT (with its carboxyl-terminal lysine) on the cell surface and also with the ability of the carboxyl-terminal domain to bind to plasminogen. For verification, we tested whether a synthetic peptide, corresponding to the C-terminus of Plg-RKT could bind plasminogen. The peptide, CEQSKLFSDK (SEQ ID NO: 33) corresponding to the ten C-terminal amino acids of Plg-RKT with cysteine substituted for R138) was coupled to bovine serum albumin (BSA) and then coated onto wells of microtiter plates at 10 μg/ml. The wells were blocked with 5% BSA. Plasminogen (0.2 μM) was incubated with the wells, followed by our anti-plasminogen MAb^36 and detection with HRP-conjugated goat anti-mouse IgG (Biosource, Camarillo, Calif.). Plasminogen bound to the peptide in a concentration dependent manner with 50% maximal binding achieved at a plasminogen concentration of ˜10 nM. The binding was specific because it was blocked in the presence of epsilon-aminocaproic acid (EACA), consistent with the ability of EACA to inhibit plasminogen binding to differentiated Hoxa9-ER4 cells. […] In controls for the detection method, O.D.490 values obtained using an isotype control antibody or in the absence of added plasminogen were <5% of the values for plasminogen binding to the BSA-coupled peptide detected with anti-plasminogen MAb.

biotinylated plasminogen = molecular target: T2, biotinylated plasminogen (Homo sapiens, UniProt P00747); assay: Direct binding of biotinylated plasminogen to immobilized peptide (streptavidin-HRP)
T2 construct: host or cells: peptide is synthetic
T2 sequence (P00747 20-810 limits assumed): as above
Protocol: (§1) Mab36Al2 or control rat IgG2A was incubated with the Plg-RKT polypeptide, CEQSKLFSDK (SEQ ID NO: 33), coupled to BSA and immobilized on microtiter wells. In these assays, 200 nM biotinylated plasminogen was then added and plasminogen binding was detected with streptavidin-HRP.
(§2) In other assays to define the ligand recognition specificity of Plg-RKT for plasminogen. the Plg-RKT polypeptide, CEQSKLFSDK (SEQ ID NO: 33), was coupled to microtiter wells. Plasminogen was directly biotinylated and then incubated with the immobilized peptide and detected with streptavidin-HRP, as above. […] (K1-3 is comprised of the plasminogen amino acid sequences, Tyr^79-Val^337 or Tyr^79-Val^353. K4 is contained within the plasminogen amino acid sequences, Val^354-Ala^439. K5-PD is contained within the plasminogen amino acid sequences, Val^442-Asn^790 and contains kringle 5 as well as the latent protease domain.)

[1] = system: plasminogen binding to the Plg-RKT polypeptide, CEQSKLFSDK (SEQ ID NO: 33); assay: Inhibition of biotinylated plasminogen binding to immobilized Plg-RKT C-terminal peptide (streptavidin-HRP); set-up: species or system mouse
Protocol: as §1
(§3) We tested the ability of a peptide, CEQSRFFIDK (SEQ ID NO: 34), corresponding to the C terminus of human Plg-RKT (residues 139-147), to inhibit the binding of biotinylated-plasminogen to the C-terminal peptide CEQSKLFSDK (SEQ ID NO: 33), of mouse Plg-RKT when CEQSKLFSDK (SEQ ID NO: 33), was coupled to BSA and immobilized to microtiter plates as described above. […] Thus, the interaction of plasminogen with the C-terminal peptide of Plg-RKT requires the presence of a C-terminal lysine residue.
as §2

[2] = molecular target: T3, plasminogen binding to the Plg-RKT polypeptide, CEQSKLFSDK (SEQ ID NO: 33) (Mus musculus, UniProt Q9D3P8, R138C); assay: as above; settings: plasminogen domains from elastase digestion
T3 construct: host or cells: peptide is synthetic
Protocol: as §1, §3, §2

Molecule	inhibition of plasminogen binding to immobilized CEQSKLFSDK (in words) [1]	order of effectiveness in inhibiting plasminogen interaction with immobilized CEQSKLFSDK [2]	other results
NCCCCCC(=O)O [epsilon-aminocaproic acid]			effect on plasminogen binding to the peptide CEQSKLFSDK (Plasminogen; in the presence of EACA): blocked
CEQSKLFSDK [CEQSKLFSDK]			biotinylated-Plg binding to the immobilized peptide (biotinylated plasminogen): concentration-dependent manner
CEQSRFFIDA [mutant peptide with the C-terminal K replaced with A, reference compound]	not affected		
CEQSRFFIDK [CEQSRFFIDK]	inhibited in a dose-dependent manner		
Plg: plasminogen, precursor of plasmin with five kringle domains and a serine protease domain		Plg>K1-3>K5>K4	
CEQSRFFIDK [peptide with R142 replaced with K, human C-terminal peptide with R142 replaced with K]	more effective competitor		
KDSFLKSQEC (listed as Mus musculus) [reverse peptide control, reference compound]			biotinylated-Plg binding to the immobilized peptide (biotinylated plasminogen): no biotinylated-Plg binding; nonspecific plasminogen binding, relative to binding to CEQSKLFSDK (Plasminogen; control peptide on wells): < 10%
B1		Plg>K1-3>K5>K4	
B2		Plg>K1-3>K5>K4	
